The text below walks through data of patent US20050197350A1, “Novel quinoline, tetrahydroquinazoline, and pyrimidine derivatives and methods of treatment related to the use thereof” (TAISHO PHARMACEUTICAL CO., LTD., priority 2003, published 2005).

Structures can show the parent of a compound that is named as a salt. Where two headings read alike, the source gives them in different places. A value given as a limit tells only on which side of the number the result lay.

The target of this assay is MCH receptor (Homo sapiens, UniProt Q99705). As to the kind of experiment: High throughput functional screening FLIPR/FDSS6000 (intracellular Ca2+ evoked by MCH). In kind it is cell-based. The conditions noted are these: FLIPR/FDSS, antagonist activity vs 50 nM MCH, class by percent of control at 10^−7 M or IC50, read-out: class. The essentials:
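For antagonist testing, compound-treated cells (30 min, 37 °C) were stimulated with 50 nM MCH and intracellular Ca2+ followed by Fluo4 fluorescence on FLIPR/FDSS6000. Receptor was a constitutively active, non-endogenous MCH receptor; dye loading 4 μM Fluo4-AM, 1 h, 37 °C.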

Turning to `CN(C)c1nc(N[C@H]2CC[C@@H](NC(=O)c3ccc(F)c(F)c3)CC2)ncc1Cl` [Example 3139, N-[cis-4-(5-Chloro-4-dimethylamino-pyrimidin-2-ylamino)-cyclohexyl]-3,4-difluoro-benzamide hydrochloride], the IC50 (table after the classification) lay within 50 to 200 nM.
The same measure, in the same setting: for `CN(C)c1ccnc(N[C@H]2CC[C@@H](NC(=O)c3cncc(Br)c3)CC2)n1` [Example 3211, 5-Bromo-N-[cis-4-(4-dimethylamino-pyrimidin-2-ylamino)-cyclohexyl]-nicotinamide hydrochloride] the value was under 50 nM; for `COc1cccc(C(=O)N[C@H]2CC[C@@H](Nc3ncc(C)c(N(C)C)n3)CC2)c1` [Example 3122, N-[cis-4-(4-Dimethylamino-5-methyl-pyrimidin-2-ylamino)-cyclohexyl]-3-methoxy-benzamide hydrochloride], under 50 nM.
As to `CN(CC(=O)N[C@H]1CC[C@@H](Nc2ccc3ccccc3n2)CC1)c1ccccc1` [Example 3066, C-(Methyl-phenyl-amino)-N-[cis-4-(quinolin-2-ylamino)-cyclohexyl]-acetamide dihydrochloride], under “table after the classification”, the IC50 was under 50 nM.
The same measure, in the same setting: next, `Cc1cc(N[C@H]2CC[C@@H](NC(=O)c3cccnc3Oc3ccc(F)c(Cl)c3)CC2)nc2ccccc12` [Example 3096, 2-(3-Chloro-4-fluoro-phenoxy)-N-[cis-4-(4-methyl-quinolin-2-ylamino)-cyclohexyl]-nicotinamide hydrochloride]: under 50 nM.
With `Cc1cc(N[C@H]2CC[C@@H](C(=O)N[C@H](C)c3cccc(C(F)(F)F)c3)CC2)nc2ccccc12` [Example 3307, cis-4-[(4-methylquinolin-2-yl)amino]-N-{(1R)-1-[3-(trifluoromethyl)phenyl]ethyl}cyclohexanecarboxamide], the IC50 is under 50 nM.
In the case of `Cc1cnc(N[C@H]2CC[C@@H](NC(=O)c3cccnc3S(=O)(=O)c3ccc(Cl)cc3)CC2)nc1N(C)C` [Example 3282, 2-[(4-chlorophenyl)sulfonyl]-N-(cis-4-{[4-(dimethylamino)-5-methylpyrimidin-2-yl]amino}cyclohexyl)nicotinamide], the IC50 was under 50 nM.
Consider `O=C(N[C@H]1CC[C@@H](Nc2ccc3ccccc3n2)CC1)c1cccc(Br)c1` [Example 3047, 3-Bromo-N-[cis-4-(quinolin-2-ylamino)-cyclohexyl]-benzamide hydrochloride], for which the IC50 (table after the classification) was under 50 nM.
Still for that read-out and setting: for `O=C(N[C@H]1CC[C@@H](Nc2ccc3ccccc3n2)CC1)c1ccc(-c2ccc(Cl)cc2)o1` [Example 3044, 5-(4-Chloro-phenyl)-furan-2-carboxylic acid [cis-4-(quinolin-2-ylamino)-cyclohexyl]-amide hydrochloride] the value was 50 to 200 nM; for `CN(C)c1cc(Cl)nc(N[C@H]2CC[C@@H](NC(=O)c3cccnc3Oc3ccccc3)CC2)n1` [Example 3233, N-[cis-4-(6-Chloro-4-dimethylamino-pyrimidin-2-ylamino)-cyclohexyl]-2-phenoxy-nicotinamide hydrochloride], over 200 nM.
As for `Cc1cnc(N[C@H]2CC[C@@H](NC(=O)N(C)c3ccc(Cl)cc3Cl)CC2)nc1N(C)C` [Example 3348, N-(2,4-dichlorophenyl)-N′-(cis-4-{[4-(dimethylamino)-5-methylpyrimidin-2-yl]amino}cyclohexyl)-N-methylurea], the IC50 is under 50 nM.
Regarding `Cc1cc(N[C@H]2CC[C@@H](NC(=O)c3cccnc3N)CC2)nc2ccccc12` [Example 3161, 2-Amino-N-[cis-4-(4-methyl-quinolin-2-ylamino)-cyclohexyl]-nicotinamide dihydrochloride], the IC50 (table after the classification) was in the range of 50 to 200 nM.
On to `Cc1cnc(N[C@H]2CC[C@@H](NC(=O)Nc3c(Cl)cccc3C(F)(F)F)CC2)nc1N(C)C` [Example 3344, N-[2-chloro-6-(trifluoromethyl)phenyl]-N′-(cis-4-{[4-(dimethylamino)-5-methylpyrimidin-2-yl]amino}cyclohexyl)urea], for which the IC50 was over 200 nM.
On the same count and under the same terms, next, `Cc1cnc(N[C@H]2CC[C@@H](NC(=O)Nc3ccc(Cl)cc3)CC2)nc1N(C)C` [Example 3333, N-(4-chlorophenyl)-N′-(cis-4-{[4-(dimethylamino)-5-methylpyrimidin-2-yl]amino}cyclohexyl)urea]: 50 to 200 nM; `Cc1cnc(N[C@H]2CC[C@@H](NC(=O)Nc3ccc(F)c(F)c3)CC2)nc1N(C)C` [Example 3327, N-(3,4-difluorophenyl)-N′-(cis-4-{[4-(dimethylamino)-5-methylpyrimidin-2-yl]amino}cyclohexyl)urea]: 50 to 200 nM.
The same measure, in the same setting: for `Cc1cccc(S(=O)(=O)c2ncccc2C(=O)N[C@H]2CC[C@@H](Nc3nc(C)cc(N(C)C)n3)CC2)c1` [Example 3376, N-(cis-4-{[4-(dimethylamino)-6-methylpyrimidin-2-yl]amino}cyclohexyl)-2-[(3-methylphenyl)sulfonyl]nicotinamide] the value was over 200 nM.
As for `CN(C)c1cc(N[C@H]2CC[C@@H](NCCc3ccc(Br)cc3OC(F)(F)F)CC2)nc2ccccc12` [Example 6, N^2-{cis-4-[2-(4-Bromo-2-trifluoromethoxy-phenyl)ethylamino]-cyclohexyl}-N^4,N^4-dimethyl-quinoline-2,4-diamine dihydrochloride], for the setting “table after the classification”, the IC50 was 50 to 200 nM.
`Cc1cnc(N[C@H]2CC[C@@H](NC(=O)Nc3ccc(Br)cc3)CC2)nc1N(C)C` [Example 3335, N-(4-bromophenyl)-N′-(cis-4-{[4-(dimethylamino)-5-methylpyrimidin-2-yl]amino}cyclohexyl)urea]: the IC50 is under 50 nM.
Same read-out and setting: next, `Cc1cnc(N[C@H]2CC[C@@H](NCC(=O)c3ccc(F)c(F)c3)CC2)nc1N(C)C` [Example 3261, 1-(3,4-difluorophenyl)-2-[(cis-4-{[4-(dimethylamino)-5-methylpyrimidin-2-yl]amino}cyclohexyl)amino]ethanone]: over 200 nM; `Cc1cc(N(C)C)nc(N[C@H]2CC[C@@H](NC(=O)N(C)C3(c4ccc(Cl)cc4)CC3)CC2)n1` [Example 3272, N-[1-(4-chlorophenyl)cyclopropyl]-N′-(cis-4-{[4-(dimethylamino)-6-methylpyrimidin-2-yl]amino}cyclohexyl)-N-methylurea]: over 200 nM.
For the molecule `CCN(CC(=O)N[C@H]1CC[C@@H](Nc2ccc3ccccc3n2)CC1)c1ccc(Cl)cc1` [Example 3154, C-[(4-Chloro-phenyl)-ethyl-amino]-N-[cis-4-(quinolin-2-ylamino)-cyclohexyl]-acetamide dihydrochloride], where the note is “table after the classification”, the IC50 was under 50 nM.
With `CCN(C(=O)N[C@H]1CC[C@@H](Nc2ncc(C)c(N(C)C)n2)CC1)c1ccc(Cl)cc1` [Example 3353, N-(4-chlorophenyl)-N′-(cis-4-{[4-(dimethylamino)-5-methylpyrimidin-2-yl]amino}cyclohexyl)-N-ethylurea], the IC50 was under 50 nM.
The same measure, in the same setting: next, `COc1nc(N[C@H]2CC[C@@H](NC(=O)c3ccc(OC(F)(F)F)cc3)CC2)ncc1C` [Example 3277, N-{cis-4-[(4-methoxy-5-methylpyrimidin-2-yl)amino]cyclohexyl}-4-(trifluoromethoxy)benzamide]: over 200 nM.
As for `CN(C)c1nc(N[C@H]2CC[C@@H](NC(=O)c3cccnc3Oc3ccccc3)CC2)ncc1F` [Example 3140, N-[cis-4-(4-Dimethylamino-5-fluoro-pyrimidin-2-ylamino)-cyclohexyl]-2-phenoxy-nicotinamide hydrochloride], under “table after the classification”, the IC50 lay within 50 to 200 nM.
For `Cc1cnc(N[C@H]2CC[C@@H](C(=O)N[C@H](C)c3ccc(OC(F)(F)F)cc3)CC2)nc1N(C)C` [Example 3303, cis-4-{[4-(dimethylamino)-5-methylpyrimidin-2-yl]amino}-N-{(1R)-1-[4-(trifluoromethoxy)phenyl]ethyl}-cyclohexanecarboxamide], the IC50 fell in the range of 50 to 200 nM.
The same measure, in the same setting: for `Cc1cnc(N[C@H]2CC[C@@H](NC(=O)c3cccnc3S(=O)(=O)c3cccc(C(F)(F)F)c3)CC2)nc1N(C)C` [Example 3287, N-(cis-4-{[4-(dimethylamino)-5-methylpyrimidin-2-yl]amino}cyclohexyl)-2-{[3-(trifluoromethyl)phenyl]sulfonyl}-nicotinamide] the value was 50 to 200 nM.
In the case of `CCNc1ccnc(N[C@H]2CC[C@@H](NC(=O)c3ccc(F)c(F)c3)CC2)n1` [Example 3225, N-[cis-4-(4-Ethylamino-pyrimidin-2-ylamino)-cyclohexyl]-3,4-difluoro-benzamide hydrochloride], for the setting “table after the classification”, the IC50 is over 200 nM.
On to `Cc1ccc(S(=O)(=O)c2ncccc2C(=O)N[C@H]2CC[C@@H](Nc3nc(C)cc(N(C)C)n3)CC2)cc1` [Example 3377, N-(cis-4-{[4-(dimethylamino)-6-methylpyrimidin-2-yl]amino}cyclohexyl)-2-[(4-methylphenyl)sulfonyl]nicotinamide], for which the IC50 was in the range of 50 to 200 nM.
Consider `Cc1cc(N[C@H]2CC[C@@H](C(=O)N[C@@H](C)c3ccc(Cl)cc3)CC2)nc2ccccc12` [Example 3306, cis-N-[(1S)-1-(4-chlorophenyl)ethyl]-4-[(4-methylquinolin-2-yl)amino]cyclohexanecarboxamide], for which the IC50 was 50 to 200 nM.
On the same count and under the same terms, for `Cc1cnc(N[C@H]2CC[C@@H](NC(=O)Nc3cc(Cl)cc(Cl)c3)CC2)nc1N(C)C` [Example 3339, N-(3,5-dichlorophenyl)-N′-(cis-4-{[4-(dimethylamino)-5-methylpyrimidin-2-yl]amino}cyclohexyl)urea] the value was 50 to 200 nM.
As for `CN(C)c1cc(N[C@H]2CC[C@@H](CNC(=O)Nc3cccc(Cl)c3Cl)CC2)nc2ccccc12` [Example 3191, 1-(2,3-Dichloro-phenyl)-3-[cis-4-(4-dimethylamino-quinolin-2-ylamino)-cyclohexylmethyl]-urea hydrochloride], where the note is “table after the classification”, the IC50 is 50 to 200 nM.
